This note sets out measurements from patent publication US7402559B2, “Composition and method of treatment for urogenital conditions” (MSH Pharma, Incorporated, priority 1999, dated 2008).

The test system of one experiment is S. aureus (ATCC 29213). The experiment is described as follows: S. aureus colony formation (viability). The experiment is classed as cell-based, Staphylococcus aureus. The settings on record: FIG. 1; significant at peptide concentrations of 10^−12 to 10^−4 M; 2 h at 37° C. The protocol:
Cultures of S. aureus (ATCC 29213) were obtained from the collection of the Department of Microbiology, Ospedale Maggiore di Milano. […] Cells were then washed in cold distilled water and diluted with HBSS to a concentration of 100 organisms/ml. One-milliliter aliquots were dispensed on blood agar plates and incubated for 24 hours at 37° C. Viability of the microorganisms was estimated from the colonies formed. In another set of experiments, 500 units of urokinase, a S. aureus growth enhancer, were also incubated with the bacteria (10^5/100 ml ) for four hours at 37° C. in a shaking water bath together with the peptides.

For a further experiment, the system named is C. glabrata. The experiment is described as follows: Candida CFU, CKPV dimer versus KPV: C. glabrata. Type of experiment: cell-based. To be noted: FIG. 19; same molarity (10^−4 M). The procedure:
(§1) C. albicans, C. glabrata. and C. krusei (clinical isolates) were obtained from the collection of the laboratory of Microbiology, Ospedale Maggiore di Milano. Six different isolates for each yeast strain were used. Candida Sp. cells were maintained on Sabouraud's agar slants and periodically transferred to Sabouraud's agar plates and incubated for 48 h at 28° C. To prepare stationary growth phase yeast, a colony was taken from the agar plates and transferred into 5 ml Sabouraud-dextrose broth and incubated for 48 h at 32° C. Cells were centrifuged at 1,000× g for 10 minutes and the pellet was washed twice with distilled water. Cells were counted and suspended in distilled water to obtain 10^7 yeast cells/ml. Viability, determined by the exclusion of 0.01% methylene blue, remained >98%.
(§2) Control tubes received 100 μl of distilled water. All the tests were run in triplicate. After 2 h incubation at 37° C., yeast suspension from each vial was diluted with distilled water to obtain approximately 100 organisms/ml. One milliliter aliquots from each tube were dispensed on blood agar plates and incubated for 48 h at 37° C. to count CFUs. Organism viability was estimated from the number of CFUs in each plate. Only experiments in which CFUs in control plates were between 80 and 120 with a variability in counts less than 10% were used to evaluate effects of the peptides. […]

For experiment [1], the system named is C. albicans. The experiment is described as follows: Candida CFU, CKPV dimer versus KPV: C. albicans. Type of experiment: cell-based. To be noted: FIG. 17; same molarity (10^−4 M). The procedure:
as §1, §2

The test system of experiment [2] is C. albicans. The experiment is described as follows: C. albicans colony formation (CFU viability). Type of experiment: cell-based, Candida albicans. The settings on record: FIG. 3; 10^−12 to 10^−4 M; p<0.01 vs. control. The procedure: Clinical isolates of C. albicans were obtained from the collection of the Department of Microbiology, Ospedale Maggiore di Milano. Cultures of C. albicans were maintained on Sabouraud's agar slants and periodically transferred to Sabouraud's agar plates and incubated for 48 hours at 28° C. To prepare stationary growth-phase yeast, a colony was taken from the agar plate, transferred into 30 ml of Sabouraud-dextrose broth, and incubated for 72 hours at 32° C. Cells were centrifuged at 1000× g for ten minutes, and the pellet was washed twice with distilled water. Cells were counted and suspended in Hank's balanced salt solution (“HBSS”) to the desired concentration.
Cells were then washed in cold distilled water and diluted with HBSS to a concentration of 100 organisms/ml. One-milliliter aliquots were then dispensed on blood agar plates and incubated for 48 hours at 37° C. The organism's viability was estimated from the number of colonies formed.
[…] The effects of forskolin and ddAdo on the ability of C. albicans to form colonies were determined according to the procedures described in Example II.

In another experiment the test system is C. krusei. The experiment is described as follows: Candida CFU, CKPV dimer versus KPV: C. krusei. The experiment is classed as cell-based. To be noted: FIG. 18; same molarity (10^−4 M). The protocol: as §1, §2

Bridge positions count the residues as written; N and C are the ends. Ends that are not written are not given here. I, II: the chains in the order shown.

Consider “VPKC-s-s-CKPV (disulfide I:1-II:1; not fully specified (N-terminus, C-terminus)) [CKPV dimer]”, for which the “S. aureus colony formation” value with S. aureus (ATCC 29213) is “inhibited”. In addition, the “effectiveness relative to KPV monomer, C. glabrata” value in the experiment on C. glabrata is listed as “more than twice as effective”. For the same substance, the “effectiveness relative to KPV monomer, C. albicans” value with C. albicans [1] was “more than twice as effective”. The “ability of C albicans to form colonies” value with C. albicans [2] is “greatly reduced”. Further, the “effectiveness relative to KPV monomer, C. krusei” value in the experiment on C. krusei was “more than twice as effective”.
